# Columns and labels:
# Experiment in all cases: KINOMEscan binding assay
# [1] = target: T1, CAMK1 (Homo sapiens, UniProt Q14012); details: read-out: % Retention on Solid Support
# T1 construct: purchased DiscoveRx KINOMEscan
# Method in brief: (§1)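 Active site-directed competition binding measured kinase engagement within a panel of over 400 kinases. i-CDK9 was tested at two concentrations, 1 and 10 µM.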
# [2] = target: T2, STK39 (Homo sapiens, UniProt Q9UEW8); details: read-out: % Retention on Solid Support
# T2 construct: purchased DiscoveRx KINOMEscan
# Method in brief: as §1
# [3] = target: T3, PIK3CA(E545A) (Homo sapiens, UniProt P42336, E545A); details: read-out: % Retention on Solid Support
# T3 construct: purchased DiscoveRx KINOMEscan
# T3 sequence (P42336 whole entry E545A): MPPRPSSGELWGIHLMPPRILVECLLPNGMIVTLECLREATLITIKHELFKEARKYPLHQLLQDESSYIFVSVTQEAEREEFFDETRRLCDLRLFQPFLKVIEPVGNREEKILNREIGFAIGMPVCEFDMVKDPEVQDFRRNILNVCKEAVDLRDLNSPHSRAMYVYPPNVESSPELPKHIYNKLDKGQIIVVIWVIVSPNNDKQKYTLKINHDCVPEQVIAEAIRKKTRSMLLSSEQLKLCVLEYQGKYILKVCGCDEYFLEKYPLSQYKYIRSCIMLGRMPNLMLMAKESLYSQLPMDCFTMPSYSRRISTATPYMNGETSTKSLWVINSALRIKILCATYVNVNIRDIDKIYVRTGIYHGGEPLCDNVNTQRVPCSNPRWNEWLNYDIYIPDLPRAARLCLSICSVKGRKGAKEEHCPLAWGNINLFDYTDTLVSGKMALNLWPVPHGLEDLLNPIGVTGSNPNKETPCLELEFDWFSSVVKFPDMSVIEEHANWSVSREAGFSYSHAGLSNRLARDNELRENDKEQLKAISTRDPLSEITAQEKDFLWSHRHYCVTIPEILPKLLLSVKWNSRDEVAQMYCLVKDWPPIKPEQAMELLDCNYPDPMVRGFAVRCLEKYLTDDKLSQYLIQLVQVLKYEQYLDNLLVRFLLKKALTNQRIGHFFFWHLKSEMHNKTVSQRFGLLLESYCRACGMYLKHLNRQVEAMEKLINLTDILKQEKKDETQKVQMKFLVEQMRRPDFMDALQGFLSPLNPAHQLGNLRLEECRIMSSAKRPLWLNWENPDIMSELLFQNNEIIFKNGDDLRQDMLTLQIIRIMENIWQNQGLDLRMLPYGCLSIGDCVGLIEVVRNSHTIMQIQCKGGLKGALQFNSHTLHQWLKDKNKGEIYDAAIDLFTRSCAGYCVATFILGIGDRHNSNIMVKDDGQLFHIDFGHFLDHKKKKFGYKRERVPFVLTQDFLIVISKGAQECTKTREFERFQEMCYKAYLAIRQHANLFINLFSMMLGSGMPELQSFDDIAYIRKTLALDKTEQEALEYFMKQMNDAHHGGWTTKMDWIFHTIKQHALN
# Method in brief: as §1
# [4] = target: T4, FGR (Homo sapiens, UniProt P09769); details: read-out: % Retention on Solid Support
# T4 construct: purchased DiscoveRx KINOMEscan
# T4 sequence (P09769 whole entry): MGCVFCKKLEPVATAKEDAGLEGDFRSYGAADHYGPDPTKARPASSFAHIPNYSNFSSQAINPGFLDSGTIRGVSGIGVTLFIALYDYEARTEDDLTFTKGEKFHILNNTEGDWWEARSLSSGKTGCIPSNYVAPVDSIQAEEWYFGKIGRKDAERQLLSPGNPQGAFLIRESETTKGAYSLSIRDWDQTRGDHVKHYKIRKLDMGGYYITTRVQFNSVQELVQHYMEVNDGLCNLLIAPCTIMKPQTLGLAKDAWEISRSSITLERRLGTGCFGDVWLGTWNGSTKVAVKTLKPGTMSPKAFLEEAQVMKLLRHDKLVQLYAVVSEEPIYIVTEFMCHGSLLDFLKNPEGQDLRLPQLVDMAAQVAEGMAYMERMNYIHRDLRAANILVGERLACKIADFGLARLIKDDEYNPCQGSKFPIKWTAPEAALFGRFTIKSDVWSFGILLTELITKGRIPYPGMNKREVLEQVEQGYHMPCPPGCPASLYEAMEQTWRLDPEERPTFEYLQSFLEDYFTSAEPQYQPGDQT
# Method in brief: as §1
# [5] = target: T5, EPHB6 (Homo sapiens, UniProt O15197); details: read-out: % Retention on Solid Support
# T5 construct: purchased DiscoveRx KINOMEscan
# Method in brief: as §1
# [6] = target: T6, STK16 (Homo sapiens, UniProt O75716); details: read-out: % Retention on Solid Support
# T6 construct: purchased DiscoveRx KINOMEscan
# T6 sequence (O75716 whole entry): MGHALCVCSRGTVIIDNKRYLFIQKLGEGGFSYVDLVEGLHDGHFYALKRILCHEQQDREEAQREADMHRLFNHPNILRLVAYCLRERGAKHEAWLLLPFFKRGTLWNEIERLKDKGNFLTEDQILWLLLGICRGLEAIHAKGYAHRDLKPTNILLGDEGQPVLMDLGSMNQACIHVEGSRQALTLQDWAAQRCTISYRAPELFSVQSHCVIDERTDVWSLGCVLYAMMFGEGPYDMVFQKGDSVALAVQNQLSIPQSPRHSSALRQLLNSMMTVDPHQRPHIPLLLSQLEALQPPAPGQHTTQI
# Method in brief: as §1
# [7] = target: T7, MEK5 (Homo sapiens, UniProt Q13163); details: 1 µM i-CDK9; read-out: % Retention on Solid Support
# T7 construct: purchased DiscoveRx KINOMEscan
# Method in brief: as §1
# [8] = target: T8, ACVRL1 (Homo sapiens, UniProt P37023); details: read-out: % Retention on Solid Support
# T8 construct: purchased DiscoveRx KINOMEscan
# Method in brief: as §1
# [9] = target: T9, HCK (Homo sapiens, UniProt P08631); details: read-out: % Retention on Solid Support
# T9 construct: purchased DiscoveRx KINOMEscan
# Method in brief: as §1
# [10] = target: T10, YSK4 (Homo sapiens, UniProt Q56UN5); details: read-out: % Retention on Solid Support
# T10 construct: purchased DiscoveRx KINOMEscan
# Method in brief: as §1
# [11] = target: T11, YANK2 (Homo sapiens, UniProt Q9NY57); details: read-out: % Retention on Solid Support
# T11 construct: purchased DiscoveRx KINOMEscan
# Method in brief: as §1
# [12] = target: T12, PIP5K1C (Homo sapiens, UniProt O60331); details: 1 µM i-CDK9
# T12 construct: purchased DiscoveRx KINOMEscan
# Method in brief: as §1
# [13] = target: T13, FGFR3 (Homo sapiens, UniProt P22607); details: read-out: % Retention on Solid Support
# T13 construct: purchased DiscoveRx KINOMEscan
# Method in brief: as §1
# [14] = target: T14, p38-delta (Homo sapiens, UniProt O15264); details: read-out: % Retention on Solid Support
# T14 construct: purchased DiscoveRx KINOMEscan
# T14 sequence (O15264 whole entry): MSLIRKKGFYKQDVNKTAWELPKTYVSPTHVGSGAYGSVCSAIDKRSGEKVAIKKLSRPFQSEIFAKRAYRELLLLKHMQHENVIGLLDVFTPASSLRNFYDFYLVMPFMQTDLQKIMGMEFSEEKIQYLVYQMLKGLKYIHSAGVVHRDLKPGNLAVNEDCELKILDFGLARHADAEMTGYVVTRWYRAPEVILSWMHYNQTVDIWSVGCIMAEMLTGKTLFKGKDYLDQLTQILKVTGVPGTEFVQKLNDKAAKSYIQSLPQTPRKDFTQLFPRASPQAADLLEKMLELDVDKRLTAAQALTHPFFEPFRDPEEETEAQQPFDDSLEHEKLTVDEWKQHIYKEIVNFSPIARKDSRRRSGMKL
# Method in brief: as §1
# [15] = target: T15, EPHA5 (Homo sapiens, UniProt P54756)
# T15 construct: purchased DiscoveRx KINOMEscan
# Method in brief: as §1
# [16] = target: T16, MEK4 (Homo sapiens, UniProt P45985); details: read-out: % Retention on Solid Support
# T16 construct: purchased DiscoveRx KINOMEscan
# Method in brief: as §1
# [17] = target: T17, EGFR(L858R,T790M) (Homo sapiens, UniProt P00533, L858R/T790M)
# T17 construct: purchased DiscoveRx KINOMEscan
# Method in brief: as §1
# [18] = target: T18, ROS1 (Homo sapiens, UniProt P08922); details: read-out: % Retention on Solid Support
# T18 construct: purchased DiscoveRx KINOMEscan
# Method in brief: as §1
# [19] = target: T19, PIK4CB (Homo sapiens, UniProt Q9UBF8); details: read-out: % Retention on Solid Support
# T19 construct: purchased DiscoveRx KINOMEscan
# Method in brief: as §1
# [20] = target: T20, PKN2 (Homo sapiens, UniProt Q16513); details: read-out: % Retention on Solid Support
# T20 construct: purchased DiscoveRx KINOMEscan
# T20 sequence (Q16513 whole entry): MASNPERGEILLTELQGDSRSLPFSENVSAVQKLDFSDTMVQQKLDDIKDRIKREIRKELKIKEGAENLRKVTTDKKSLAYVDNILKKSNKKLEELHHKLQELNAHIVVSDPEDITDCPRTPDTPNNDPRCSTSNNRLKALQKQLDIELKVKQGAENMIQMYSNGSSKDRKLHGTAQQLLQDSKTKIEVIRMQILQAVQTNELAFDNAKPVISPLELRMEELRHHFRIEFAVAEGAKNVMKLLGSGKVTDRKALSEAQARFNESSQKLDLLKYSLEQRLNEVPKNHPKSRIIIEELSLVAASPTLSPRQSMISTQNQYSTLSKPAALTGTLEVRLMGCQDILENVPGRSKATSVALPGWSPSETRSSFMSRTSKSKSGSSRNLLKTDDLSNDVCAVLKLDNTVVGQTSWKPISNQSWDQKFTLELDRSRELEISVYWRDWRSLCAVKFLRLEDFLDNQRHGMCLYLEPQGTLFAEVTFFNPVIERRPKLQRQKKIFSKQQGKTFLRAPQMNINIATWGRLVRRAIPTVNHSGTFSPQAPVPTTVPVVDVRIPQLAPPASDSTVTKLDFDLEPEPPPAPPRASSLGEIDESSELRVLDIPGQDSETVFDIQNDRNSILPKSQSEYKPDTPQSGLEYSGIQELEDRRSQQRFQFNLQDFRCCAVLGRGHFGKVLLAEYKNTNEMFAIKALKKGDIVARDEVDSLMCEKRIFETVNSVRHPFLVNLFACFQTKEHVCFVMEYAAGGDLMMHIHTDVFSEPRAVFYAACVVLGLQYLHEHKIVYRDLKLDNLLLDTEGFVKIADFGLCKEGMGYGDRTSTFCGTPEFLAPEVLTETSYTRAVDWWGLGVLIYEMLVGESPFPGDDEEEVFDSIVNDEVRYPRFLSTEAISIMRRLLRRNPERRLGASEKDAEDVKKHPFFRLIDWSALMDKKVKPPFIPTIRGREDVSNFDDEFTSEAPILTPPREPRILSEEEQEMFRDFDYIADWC
# Method in brief: as §1
# [21] = target: T21, MST1 (Homo sapiens, UniProt Q13043)
# T21 construct: purchased DiscoveRx KINOMEscan
# Method in brief: as §1
# [22] = target: T22, LZK (Homo sapiens, UniProt O43283)
# T22 construct: purchased DiscoveRx KINOMEscan
# Method in brief: as §1
# [23] = target: T23, AKT2 (Homo sapiens, UniProt P31751); details: read-out: % Retention on Solid Support
# T23 construct: purchased DiscoveRx KINOMEscan
# T23 sequence (P31751 whole entry): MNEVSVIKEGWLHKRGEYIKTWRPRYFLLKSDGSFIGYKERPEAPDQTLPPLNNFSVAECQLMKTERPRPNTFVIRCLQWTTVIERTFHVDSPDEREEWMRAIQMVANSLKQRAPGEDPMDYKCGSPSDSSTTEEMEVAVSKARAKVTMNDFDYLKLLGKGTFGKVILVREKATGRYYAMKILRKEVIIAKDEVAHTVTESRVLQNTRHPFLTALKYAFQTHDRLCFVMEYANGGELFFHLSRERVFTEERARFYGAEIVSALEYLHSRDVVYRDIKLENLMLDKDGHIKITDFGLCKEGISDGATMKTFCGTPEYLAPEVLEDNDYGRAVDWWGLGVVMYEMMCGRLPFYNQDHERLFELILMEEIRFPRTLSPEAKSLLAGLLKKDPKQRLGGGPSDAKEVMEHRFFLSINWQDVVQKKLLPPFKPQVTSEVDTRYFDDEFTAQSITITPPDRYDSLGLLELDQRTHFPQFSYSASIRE
# Method in brief: as §1
# [24] = target: T24, CIT (Homo sapiens, UniProt O14578)
# T24 construct: purchased DiscoveRx KINOMEscan
# Method in brief: as §1
# [25] = target: T25, SRPK1 (Homo sapiens, UniProt Q96SB4); details: read-out: % Retention on Solid Support
# T25 construct: purchased DiscoveRx KINOMEscan
# T25 sequence (Q96SB4 whole entry): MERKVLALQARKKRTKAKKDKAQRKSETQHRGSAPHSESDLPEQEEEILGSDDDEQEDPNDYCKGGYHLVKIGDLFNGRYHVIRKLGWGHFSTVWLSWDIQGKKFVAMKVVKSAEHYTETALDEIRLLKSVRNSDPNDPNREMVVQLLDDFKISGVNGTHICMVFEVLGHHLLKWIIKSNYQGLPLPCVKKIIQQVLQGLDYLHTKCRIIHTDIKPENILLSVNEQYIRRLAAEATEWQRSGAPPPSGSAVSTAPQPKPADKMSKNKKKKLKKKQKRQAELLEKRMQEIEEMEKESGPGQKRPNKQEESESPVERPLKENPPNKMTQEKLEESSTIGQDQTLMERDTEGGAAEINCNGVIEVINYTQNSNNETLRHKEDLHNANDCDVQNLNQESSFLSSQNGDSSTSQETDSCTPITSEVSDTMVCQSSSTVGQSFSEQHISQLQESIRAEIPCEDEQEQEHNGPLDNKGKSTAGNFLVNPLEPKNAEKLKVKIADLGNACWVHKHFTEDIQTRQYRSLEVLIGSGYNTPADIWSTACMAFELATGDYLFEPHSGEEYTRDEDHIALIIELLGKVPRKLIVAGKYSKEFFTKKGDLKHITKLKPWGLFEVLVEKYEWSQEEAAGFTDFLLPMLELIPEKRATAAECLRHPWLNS
# Method in brief: as §1
# [26] = target: T26, ADCK3 (Homo sapiens, UniProt Q8NI60); details: read-out: % Retention on Solid Support
# T26 construct: purchased DiscoveRx KINOMEscan
# Method in brief: as §1
# [27] = target: T27, PIK3CA (Homo sapiens, UniProt P42336); details: read-out: % Retention on Solid Support
# T27 construct: purchased DiscoveRx KINOMEscan
# T27 sequence (P42336 whole entry): as the sequence (P42336 whole entry E545A) above, with A545E counted along it
# Method in brief: as §1
# [28] = target: T28, RIPK4 (Homo sapiens, UniProt P57078); details: read-out: % Retention on Solid Support
# T28 construct: purchased DiscoveRx KINOMEscan
# Method in brief: as §1
# [29] = target: T29, ERK4 (Homo sapiens, UniProt P31152); details: read-out: % Retention on Solid Support
# T29 construct: purchased DiscoveRx KINOMEscan
# T29 sequence (P31152 whole entry): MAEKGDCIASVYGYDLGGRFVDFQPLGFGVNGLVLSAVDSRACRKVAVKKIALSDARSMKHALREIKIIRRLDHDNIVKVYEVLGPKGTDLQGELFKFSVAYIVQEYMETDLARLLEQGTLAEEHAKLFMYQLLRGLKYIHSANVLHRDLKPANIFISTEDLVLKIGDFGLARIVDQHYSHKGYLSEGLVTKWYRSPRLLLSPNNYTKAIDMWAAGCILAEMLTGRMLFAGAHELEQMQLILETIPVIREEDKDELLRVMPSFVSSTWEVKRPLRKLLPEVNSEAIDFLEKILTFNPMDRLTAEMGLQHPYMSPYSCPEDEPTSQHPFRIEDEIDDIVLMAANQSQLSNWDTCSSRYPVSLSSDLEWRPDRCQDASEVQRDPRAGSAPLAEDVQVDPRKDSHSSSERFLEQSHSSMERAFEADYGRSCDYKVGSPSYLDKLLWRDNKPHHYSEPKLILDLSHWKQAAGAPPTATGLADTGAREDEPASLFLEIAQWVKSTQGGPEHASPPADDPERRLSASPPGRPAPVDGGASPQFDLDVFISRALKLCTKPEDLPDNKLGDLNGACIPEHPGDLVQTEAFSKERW
# Method in brief: as §1
# [30] = target: T30, MAP3K2 (Homo sapiens, UniProt Q9Y2U5); details: read-out: % Retention on Solid Support
# T30 construct: purchased DiscoveRx KINOMEscan
# Method in brief: as §1
smiles,measurement,setting,value
"N[C@H]1CC[C@H](Nc2cc(-c3cccc(NCc4cccc(F)c4)n3)c(Cl)cn2)CC1 [i-CDK9, N2′-(trans-4-aminocyclohexyl)-5′-chloro-N6-(3-fluorobenzyl)-2,4′-bipyridine-2′,6-diamine]",remaining binding at 1 µM,[1]; 1 µM i-CDK9,96%
same,remaining binding at 10 µM,[1]; 10 µM i-CDK9,100%
same,remaining binding at 1 µM,[2]; 1 µM i-CDK9,100%
same,remaining binding at 10 µM,[2]; 10 µM i-CDK9,77%
same,remaining binding at 1 µM,[3]; 1 µM i-CDK9,100%
same,remaining binding at 10 µM,[3]; 10 µM i-CDK9,100%
same,remaining binding at 1 µM,[4]; 1 µM i-CDK9,100%
same,remaining binding at 10 µM,[4]; 10 µM i-CDK9,98%
same,remaining binding at 1 µM,[5]; 1 µM i-CDK9,47%
same,remaining binding at 10 µM,[5]; 10 µM i-CDK9,74%
same,remaining binding at 1 µM,[6]; 1 µM i-CDK9,95%
same,remaining binding at 10 µM,[6]; 10 µM i-CDK9,100%
same,remaining binding at 1 µM,[7],100%
same,remaining binding at 1 µM,[8]; 1 µM i-CDK9,95%
same,remaining binding at 10 µM,[8]; 10 µM i-CDK9,100%
same,remaining binding at 1 µM,[9]; 1 µM i-CDK9,81%
same,remaining binding at 10 µM,[9]; 10 µM i-CDK9,100%
same,remaining binding at 1 µM,[10]; 1 µM i-CDK9,100%
same,remaining binding at 10 µM,[10]; 10 µM i-CDK9,68%
same,remaining binding at 1 µM,[11]; 1 µM i-CDK9,90%
same,remaining binding at 10 µM,[11]; 10 µM i-CDK9,100%
same,% Retention on Solid Support,[12],85%
same,remaining binding at 1 µM,[13]; 1 µM i-CDK9,100%
same,remaining binding at 10 µM,[13]; 10 µM i-CDK9,95%
same,remaining binding at 1 µM,[14]; 1 µM i-CDK9,100%
same,remaining binding at 10 µM,[14]; 10 µM i-CDK9,98%
same,% Retention on Solid Support,[15]; 1 µM i-CDK9,96%
same,% Retention on Solid Support,[15]; 10 µM i-CDK9,100%
same,remaining binding at 1 µM,[16]; 1 µM i-CDK9,39%
same,remaining binding at 10 µM,[16]; 10 µM i-CDK9,97%
same,% Retention on Solid Support,[17]; 1 µM i-CDK9,100%
same,% Retention on Solid Support,[17]; 10 µM i-CDK9,89%
same,remaining binding at 1 µM,[18]; 1 µM i-CDK9,98%
same,remaining binding at 10 µM,[18]; 10 µM i-CDK9,100%
same,remaining binding at 1 µM,[19]; 1 µM i-CDK9,29%
same,remaining binding at 10 µM,[19]; 10 µM i-CDK9,84%
same,remaining binding at 1 µM,[20]; 1 µM i-CDK9,52%
same,remaining binding at 10 µM,[20]; 10 µM i-CDK9,93%
same,% Retention on Solid Support,[21]; 1 µM i-CDK9,100%
same,% Retention on Solid Support,[21]; 10 µM i-CDK9,100%
same,% Retention on Solid Support,[22]; 1 µM i-CDK9,100%
same,% Retention on Solid Support,[22]; 10 µM i-CDK9,100%
same,remaining binding at 1 µM,[23]; 1 µM i-CDK9,89%
same,remaining binding at 10 µM,[23]; 10 µM i-CDK9,77%
same,% Retention on Solid Support,[24]; 1 µM i-CDK9,60%
same,% Retention on Solid Support,[24]; 10 µM i-CDK9,8.2%
same,remaining binding at 1 µM,[25]; 1 µM i-CDK9,100%
same,remaining binding at 10 µM,[25]; 10 µM i-CDK9,70%
same,remaining binding at 1 µM,[26]; 1 µM i-CDK9,100%
same,remaining binding at 10 µM,[26]; 10 µM i-CDK9,86%
same,remaining binding at 1 µM,[27]; 1 µM i-CDK9,100%
same,remaining binding at 10 µM,[27]; 10 µM i-CDK9,100%
same,remaining binding at 1 µM,[28]; 1 µM i-CDK9,53%
same,remaining binding at 10 µM,[28]; 10 µM i-CDK9,100%
same,remaining binding at 1 µM,[29]; 1 µM i-CDK9,100%
same,remaining binding at 10 µM,[29]; 10 µM i-CDK9,100%
same,remaining binding at 1 µM,[30]; 1 µM i-CDK9,23%
same,remaining binding at 10 µM,[30]; 10 µM i-CDK9,100%

# — PMC4490784, “Compensatory induction of MYC expression by sustained CDK9 inhibition via a BRD4-dependent mechanism” (eLife, 2015)
